The test system of experiment [1] is Burkholderia cepacia. Kind of experiment: Kinetic resolution by Lipase PS from Pseudomonas cepacia, catalyzed acylation by using Succinic anhydride.
The test system of experiment [2] is Burkholderia cepacia. The experiment in a line: Kinetic resolution by Lipase PS from Pseudomonas cepacia, catalyzed acylation by using Phenyl acetate.
The test system of experiment [3] is Burkholderia cepacia. The experiment in a line: Kinetic resolution by Lipase PS from Pseudomonas cepacia, catalyzed acylation by using Vinyl acetate.
Experiment [4] relates to Burkholderia cepacia. The experiment in a line: Kinetic resolution by Lipase PS from Pseudomonas cepacia, catalyzed acylation by using Isopropenyl acetate.

This note sets out measurements from ChEMBL document CHEMBL1134882, “Preparation of chiral 4-benzyloxymethyldihydrofuran-2-one using lipase-catalyzed kinetic resolution: synthesis of (-)-virginiae butanolide C (VB C)” (Bioorg Med Chem Lett, 2002).

Each structure is given as a SMILES string. Where “and” joins values, the source holds several entries; their conditions need not be identical. Identical values can stand only once.

On to `CN(C)C(=O)C[C@H](CO)COCc1ccccc1`, for which the TIME came to 8 h in the experiment with Burkholderia cepacia [1] and 2 h in the experiment with Burkholderia cepacia [2].

Consider `O=C(C[C@@H](CO)COCc1ccccc1)NCc1ccccc1`, for which the TIME in the experiment on Burkholderia cepacia [2] is 10 h.

With `CCN(CC)C(=O)C[C@H](CO)COCc1ccccc1`, the TIME in the experiment with Burkholderia cepacia [3] is 2 h; in the experiment with Burkholderia cepacia [4], 9 h; with Burkholderia cepacia [1], 4 h; in the experiment on Burkholderia cepacia [2], 3 h and 2 h.

Consider `CCNC(=O)C[C@@H](CO)COCc1ccccc1`, for which the results for the TIME with Burkholderia cepacia [1] and in the experiment with Burkholderia cepacia [2] were 5 h and 1 h, respectively.

`CNC(=O)C[C@@H](CO)COCc1ccccc1` came in with a TIME in the experiment with Burkholderia cepacia [2] of 12 h.
